Biological target: T1, human RIPK1 (1-375) (Homo sapiens, UniProt Q13546)
T1 construct: human RIPK1 (1-375) gene; GST; made in house; host or cells: Sf-9 insect cells
T1 sequence (Q13546 1-375): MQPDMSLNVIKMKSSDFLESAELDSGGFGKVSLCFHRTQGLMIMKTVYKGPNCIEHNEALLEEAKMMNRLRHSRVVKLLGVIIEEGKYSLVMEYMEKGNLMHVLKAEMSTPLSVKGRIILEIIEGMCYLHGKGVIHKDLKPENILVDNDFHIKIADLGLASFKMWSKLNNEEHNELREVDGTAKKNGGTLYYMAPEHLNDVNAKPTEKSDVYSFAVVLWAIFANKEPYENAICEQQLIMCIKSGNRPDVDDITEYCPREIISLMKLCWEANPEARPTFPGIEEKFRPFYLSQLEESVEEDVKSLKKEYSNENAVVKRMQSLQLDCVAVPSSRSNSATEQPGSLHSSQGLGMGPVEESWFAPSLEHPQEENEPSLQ
Assay: Human RIPK1 enzyme inhibitory effect (ADP-Glo Kinase Assay)
Type: biochemical
Conditions: well without enzyme = 100% inhibition; for inhibition at 10 µM: read-out: human RIPK1 enzyme inhibitory effect at 10 μM (% inhibition), 10 μM test compound; for human RIPK1 enzyme inhibitory effect at 10 μM (% inhibition): 10 μM test compound
In short: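 ADP-Glo luminescence read-out of ADP formed over 120 min at room temperature after adding 0.6 mM ATP solution (stock concentration). Compound and Sf-9-expressed, GST-purified RIPK1 (1-375) were first incubated together for 20 min in HEPES pH 7.5 buffer with MgCl2, Tween-20 and DTT.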

inhibition at 10 µM [%]	human RIPK1 enzyme inhibitory effect at 10 μM (% inhibition) [%]	Structure (SMILES)
101	–	CN1C(=O)[C@@H](N2CCc3c(nn(Cc4ccccc4)c3Cl)C2=O)COc2cc(Br)ccc21 [Example 58, (3S)-3-(2-benzyl-3-chloro-7-oxo-2,4,5,7-tetrahydro-6H-pyrazolo[3,4-c]pyridin-6-yl)-8-bromo-5-methyl-2,3-dihydro-1,5-benzoxazepin-4(5H)-one]
100	–	CC(c1ccccc1)n1cc2c(n1)C(=O)N([C@H]1COc3ccccc3N(C)C1=O)CC2 (stereo partly drawn) [Example 21, (3S)-5-methyl-3-(7-oxo-2-(1-phenylethyl)-2,4,5,7-tetrahydro-6H-pyrazolo[3,4-c]pyridin-6-yl)-2,3-dihydro-1,5-benzoxazepin-4(5H)-one]
–	88	CN1C(=O)C(N2CCc3c(nn(Cc4ccccc4)c3Cl)C2=O)CCc2ccncc21 (centres unmarked) [Example 102, 3-(2-benzyl-3-chloro-7-oxo-2,4,5,7-tetrahydro-6H-pyrazolo[3,4-c]pyridin-6-yl)-1-methyl-1,3,4,5-tetrahydro-2H-pyrido[3,4-b]azepin-2-one]
100	–	CN1C(=O)[C@@H](N2CCc3c(nn(Cc4cnccn4)c3Cl)C2=O)COc2ccc(F)cc21 [Example 143, (3S)-3-(3-chloro-7-oxo-2-(pyrazin-2-ylmethyl)-2,4,5,7-tetrahydro-6H-pyrazolo[3,4-c]pyridin-6-yl)-7-fluoro-5-methyl-2,3-dihydro-1,5-benzoxazepin-4(5H)-one]
97	–	CN1C(=O)[C@@H](N2CCc3c(nn(Cc4ccccc4)c3Cl)C2=O)COc2cc(C3COC3)ccc21 [Example 59, (3S)-3-(2-benzyl-3-chloro-7-oxo-2,4,5,7-tetrahydro-6H-pyrazolo[3,4-c]pyridin-6-yl)-5-methyl-8-(oxetan-3-yl)-2,3-dihydro-1,5-benzoxazepin-4(5H)-one]
100	–	CN1C(=O)[C@@H](N2CCc3cn(CC4CCCC4)nc3C2=O)COc2ccccc21 [Example 37, (3S)-3-(2-(cyclopentylmethyl)-7-oxo-2,4,5,7-tetrahydro-6H-pyrazolo[3,4-c]pyridin-yl)-5-methyl-2,3-dihydro-1,5-benzoxazepin-4(5H)-one]
–	99	CN1C(=O)C(N2CCc3c(nn(Cc4ccccc4)c3Cl)C2=O)CCc2ncccc21 (centres unmarked) [Example 65, 7-(2-benzyl-3-chloro-7-oxo-2,4,5,7-tetrahydro-6H-pyrazolo[3,4-c]pyridin-6-yl)-5-methyl-5,7,8,9-tetrahydro-6H-pyrido[3,2-b]azepin-6-one]
100	–	CC1Cc2cn(Cc3ccccc3)nc2C(=O)N1[C@H]1COc2ccccc2N(C)C1=O (stereo partly drawn) [Example 68, (3S)-3-(2-benzyl-5-methyl-7-oxo-2,4,5,7-tetrahydro-6H-pyrazolo[3,4-c]pyridin-6-yl)-5-methyl-2,3-dihydro-1,5-benzoxazepin-4(5H)-one]
–	100	CN1C(=O)C(N2CCc3c(nn(Cc4c(F)cccc4F)c3Cl)C2=O)CCc2c1cnn2C (centres unmarked) [Example 133, 6-(3-chloro-2-(2,6-difluorobenzyl)-7-oxo-2,4,5,7-tetrahydro-6H-pyrazolo[3,4-c]pyridin-6-yl)-1,4-dimethyl-4,6,7,8-tetrahydropyrazolo[4,3-b]azepin-5(1H)-one]
100	–	CN1C(=O)[C@@H](N2CCc3cn(Cc4c(F)cccc4F)nc3C2=O)COc2cc(Br)ccc21 [Example 110, (3S)-8-bromo-3-(2-(2,6-difluorobenzyl)-7-oxo-2,4,5,7-tetrahydro-6H-pyrazolo[3,4-c]pyridin-6-yl)-5-methyl-2,3-dihydro-1,5-benzoxazepin-4(5H)-one]
–	95	CN1C(=O)C(N2CCc3c(nn(Cc4ccccc4F)c3Cl)C2=O)CCc2nn(C)cc21 (centres unmarked) [Example 120, 6-(3-chloro-2-(2-fluorobenzyl)-7-oxo-2,4,5,7-tetrahydro-6H-pyrazolo[3,4-c]pyridin-6-yl)-2,4-dimethyl-2,6,7,8-tetrahydropyrazolo[4,3-b]azepin-5(4H)-one]
100	–	COCc1ccc2c(c1)OC[C@H](N1CCc3c(nn(Cc4ccccc4)c3Cl)C1=O)C(=O)N2C [Example 141, (3S)-3-(2-benzyl-3-chloro-7-oxo-2,4,5,7-tetrahydro-6H-pyrazolo[3,4-c]pyridin-6-yl)-8-(methoxymethyl)-5-methyl-2,3-dihydro-1,5-benzoxazepin-4(5H)-one]
67	–	CN1C(=O)[C@@H](N2CCc3c(nn(Cc4ccccc4)c3C(=O)O)C2=O)COc2ccccc21 [Example 53, 2-benzyl-6-((3S)-5-methyl-4-oxo-2,3,4,5-tetrahydro-1,5-benzoxazepin-3-yl)-7-oxo-4,5,6,7-tetrahydro-2H-pyrazolo[3,4-c]pyridine-3-carboxylic acid]
86	–	CN1C(=O)[C@@H](N2CCc3cn(Cc4ncccn4)nc3C2=O)COc2ccccc21 [Example 36, (3S)-5-methyl-3-(7-oxo-2-(pyrimidin-2-ylmethyl)-2,4,5,7-tetrahydro-6H-pyrazolo[3,4-c]pyridin-6-yl)-2,3-dihydro-1,5-benzoxazepin-4(5H)-one]
101	–	CN1C(=O)[C@@H](N2CCc3c(nn(Cc4cnccn4)c3Cl)C2=O)COc2ccccc21 [Example 80, (3S)-3-(3-chloro-7-oxo-2-(pyrazin-2-ylmethyl)-2,4,5,7-tetrahydro-6H-pyrazolo[3,4-c]pyridin-6-yl)-5-methyl-2,3-dihydro-1,5-benzoxazepin-4(5H)-one]
100	–	Cc1c2c(nn1Cc1ccccc1)C(=O)N([C@H]1COc3cc(C#N)ccc3N(C)C1=O)CC2 [Example 86]
–	100	CN1C(=O)C(N2CCc3c(nn(Cc4ccccc4)c3Cl)C2=O)CCc2cccnc21 (centres unmarked) [Example 91, 7-(2-benzyl-3-chloro-7-oxo-2,4,5,7-tetrahydro-6H-pyrazolo[3,4-c]pyridin-6-yl)-9-methyl-5,6,7,9-tetrahydro-8H-pyrido[2,3-b]azepin-8-one]
101	–	CN1C(=O)[C@@H](N2CCc3c(nn(Cc4cnccn4)c3Cl)C2=O)COc2cc(F)ccc21 [Example 75, (3S)-3-(3-chloro-7-oxo-2-(pyrazin-2-ylmethyl)-2,4,5,7-tetrahydro-6H-pyrazolo[3,4-c]pyridin-6-yl)-8-fluoro-5-methyl-2,3-dihydro-1,5-benzoxazepin-4(5H)-one]
99	–	CN1C(=O)C(N2CCc3c(nn(Cc4ccccc4F)c3Cl)C2=O)CCc2cnccc21 (centres unmarked) [Example 105, 3-(3-chloro-2-(2-fluorobenzyl)-7-oxo-2,4,5,7-tetrahydro-6H-pyrazolo[3,4-c]pyridin-6-yl)-1-methyl-1,3,4,5-tetrahydro-2H-pyrido[4,3-b]azepin-2-one]
101	–	CN1C(=O)[C@@H](N2CCc3c(nn(Cc4cnccn4)c3Cl)C2=O)COc2cc(Cl)ccc21 [Example 146, (3S)-8-chloro-3-(3-chloro-7-oxo-2-(pyrazin-2-ylmethyl)-2,4,5,7-tetrahydro-6H-pyrazolo[3,4-c]pyridin-6-yl)-5-methyl-2,3-dihydro-1,5-benzoxazepin-4(5H)-one]
100	–	Cc1c2c(nn1Cc1ccccc1F)C(=O)N([C@H]1COc3cc(C#N)ccc3N(C)C1=O)CC2 [Example 112, (3S)-3-(2-(2-fluorobenzyl)-3-methyl-7-oxo-2,4,5,7-tetrahydro-6H-pyrazolo[3,4-c]pyridin-6-yl)-5-methyl-4-oxo-2,3,4,5-tetrahydro-1,5-benzoxazepine-8-carbonitrile]
99	–	CN1C(=O)[C@@H](N2CCc3cn(Cc4ccccc4)nc3C2=O)CSc2ccccc21 [Example 19, (3R)-3-(2-benzyl-7-oxo-2,4,5,7-tetrahydro-6H-pyrazolo[3,4-c]pyridin-6-yl)-5-methyl-2,3-dihydro-1,5-benzothiazepin-4(5H)-one]
88	–	O=C1Nc2ccccc2CCC1n1ccc2cn(Cc3ccccc3)nc2c1=O (centres unmarked) [Example 5, 3-(2-benzyl-7-oxo-2,7-dihydro-6H-pyrazolo[3,4-c]pyridin-6-yl)-1,3,4,5-tetrahydro-2H-1-benzazepin-2-one]
–	84	CN1C(=O)C(N2CCc3c(nn(Cc4ccccc4)c3Cl)C2=O)CCc2c1cnn2C (centres unmarked) [Example 128, 6-(2-benzyl-3-chloro-7-oxo-2,4,5,7-tetrahydro-6H-pyrazolo[3,4-c]pyridin-6-yl)-1,4-dimethyl-4,6,7,8-tetrahydropyrazolo[4,3-b]azepin-5(1H)-one]
101	–	CN1C(=O)[C@@H](N2CCc3c(nn(Cc4ccccc4)c3Cl)C2=O)COc2cc(C(=O)NCC(C)(C)O)ccc21 [Example 62, (3S)-3-(2-benzyl-3-chloro-7-oxo-2,4,5,7-tetrahydro-6H-pyrazolo[3,4-c]pyridin-6-yl)-N-(2-hydroxy-2-methylpropyl)-5-methyl-4-oxo-2,3,4,5-tetrahydro-1,5-benzoxazepine-8-carboxamide]
100	–	CN1C(=O)[C@@H](N2CCc3cn(Cc4ccc(Cl)cc4)nc3C2=O)COc2ccccc21 [Example 20, (3S)-3-(2-(4-chlorobenzyl)-7-oxo-2,4,5,7-tetrahydro-6H-pyrazolo[3,4-c]pyridin-6-yl)-5-methyl-2,3-dihydro-1,5-benzoxazepin-4(5H)-one]
